# According to patent US20240382509A1, “Cannabinoids C- and O-glycosides possessing anti-proliferative and anti-metastatic properties and process for preparation thereof” (Council of Scientific and Industrial Research, priority 2021, published 2024):
# Experiments:
# [1] = tested on: Panc-1 cells; experiment: MTT cell viability assay, Panc-1; assay type: cell-based; conditions: Homo sapiens, PANC-1, 48 h, read-out: Cytotoxicity (IC50) Panc-1, MTT, 48 h; pancreatic cancer cells
# Protocol: (§1) Cell viability assay: The cell viability was determined by the standard MTT assay method. Briefly, Panc-1, HCT-116, A549, PC3, MIAPaca-2, HT-29, MDA-MB-231, MCF7 cells, and fR2cells were seeded in 96 well tissue culture plates (Nunc) at a density of 4×10^3 cells per well and treated with varying concentrations of the test compounds in triplicates. DMSO was taken as a vehicle, and its final concentration was maintained at 0.2% in the culture medium. Doxorubicin was employed as a positive control. After 44 h of incubation, MTT dye solution was added into the medium, and cells were incubated for another 4 h at 37° C. in 5% CO2. The amount of colored formazan derivatives formed was measured by taking optical density (OD) using a microplate reader (TECAN, Infinite M200 Pro) at 570 nm, and the percentage of cell viability was calculated. The IC50 values were calculated using GraphPad Prism software (Version 5.0).
# [2] = tested on: PC3 cells; experiment: MTT cell viability assay, PC3; assay type: cell-based; conditions: Homo sapiens, PC-3, 48 h, read-out: Cytotoxicity (IC50) PC3, MTT, 48 h
# Protocol: as §1
# [3] = MTT cell viability assay, fR2 normal epithelial cells; assay type: cell-based, human; conditions: human, fR2 normal epithelial cells; MTT, 48 h; normal epithelial cell line; read-out: Cytotoxicity (IC50) fR2
# Protocol: as §1
# [4] = tested on: fR2 cells; experiment: as above; assay type: cell-based, human; conditions: in vitro
# Protocol: as §1
# [5] = tested on: MDA-MB-231 cells; experiment: MTT cell viability assay, MDA-MB-231; assay type: cell-based; conditions: Homo sapiens, aggressive breast cancer cell line of mesenchymal origin
# Protocol: as §1
# (§2) Now to study its anti-migratory and anti-metastatic role in another highly metastatic cancer cells of breast origin (MDA-MB 231) the IC50 value was determined by performing MTT assay (FIG. 6a).
# [6] = tested on: MIAPaCa-2 cells; experiment: Wound healing assay; assay type: cell-based, human; conditions: MIAPaCa-2, 1, 2 and 3 μM, 36 h, compared to 2, 2b, 4, 4a, 4b
# Protocol: Wound healing assay. MIAPaCa-2 cells (1×10^6) were seeded onto 6 well plates and grown up to more than 90% confluency, and wounds were created with sterile pipette tip (20-200 μL), and the media was replaced with serum-free media. Subsequently, the cells were treated with vehicle (DMSO), compounds 3 μM of 2 and 4, and their derivatives, i.e., 1, 2 and 3 μM of 2a, 2b, 4a, 4b for 36 h. Upon termination, the cells were washed with PBS, and images were captured under a microscope at 20× magnification (FIG. 4).
# [7] = tested on: MIAPaCa-2 cells; experiment: Matrigel invasion assay, MIAPaCa-2; assay type: cell-based, human; conditions: MIAPaCa-2, from 0.5 μM (0.5-5 μM), 36 h
# Protocol: Matrigel invasion assay: MIAPaCa-2 and MDA-MB-231 cells (1×10^6) were seeded onto matrigel coated inserts and treated with compound 2a (0.5, 1.5, 3 & 5 μM) for 36 h in 5% CO2 incubator at 37° C. The upper chamber is filled with serum-free media, and the lower half consists of 10% FBS supplemented media, thus creating a gradient of chemoattractant that facilitates the migration of cells. Upon termination, the inserts were washed with PBS, and the non-migratory cells were removed from the upper chamber by using a cotton plug. Further, the cells were fixed with methanol and stained later with 0.2% crystal violet. After drying, the inserts were observed under an inverted microscope at 20× magnification, and images were taken.
# Now this particular derivative was further analysed for its ability to inhibit the molecular signatures of EMT. To this end, MIAPaCa-2 cells were treated with 0.5 μM, 1.5 μM, 3 μM and 5 μM of compound 2a for 36 h and were subjected to immunoblotting to study the expression of Snail-1, Twist-1, Vimentin and E-cadherin. […] To analyse more deeply the ability of this compound to affect migration/metastasis, MIAPaCa-2 cells were seeded onto Matrigel coated inserts and were treated with 0.5 μM, 1.5 μM, 3 μM and 5 μM of compound 2a. […] Formation of invadopodia and filopodia (migratory structures) constitutes the fundamental property of cells undergoing migration. […]
# [8] = tested on: MDA-MB-231 cells; experiment: In-situ gelatin degradation assay, MDA-MB-231; assay type: cell-based, human; conditions: MDA-MB-231, 1.5 μM to 5 μM
# Protocol: Matrix gelatin degradation assay. In-situ gelatin degradation assay is performed to detect the formation of migratory structures (invadopodia & filopodia). Briefly, glass coverslips were coated with gelatin tagged with FITC, and the coated coverslips were dipped into 70% ethanol and immersed into a 6 well plate filled with RPMI and the coverslips were kept in a CO2 incubator for 1-2 h for preconditioning. Later on, both MIAPaCa-2 and MDA-MB-231 cells were seeded onto the coverslips and kept overnight for attachment. Treatment of the compound 2a (0.5, 1.5, 3 & 5 μM) was given on the next day and continued for 36 h. Upon termination, the coverslips were washed with ice-cold PBS, and then it was fixed in 4% paraformaldehyde for 15 min and then washed with PBS. Finally, the coverslips were mounted using mounting media consist of glycerol, and the edges were sealed with nail polish. After drying, the slides were observed under a fluorescence microscope to assess a degraded area's presence. The fluorescent images were captured, and the images were further processed in Image J software (Version 1.50i) to quantify the degraded area in each field.
# as §2
# [9] = tested on: HCT-116 cells; experiment: Annexin V/PI staining for apoptosis (FACS); assay type: cell-based; conditions: HCT-116, 750 nM 5FU+3 μM 2a
# Protocol: 1×10^6 HCT-116 cells were seeded in 60 mm Petri dish and treated with vehicle, 3 μM 2a, 750 nM 5FU and 750 nM 5FU+3 μM 2a for indicated time points. After treatment termination, the cells were carefully trypsinized and the palette obtained were resuspended in 600 μL of binding buffer (10 mM HEPES [N-2-hydroxyethylpiperazine-N-2-ethanesulfonicacid], 140 mM NaCl, and 2.5 mM CaCl2, pH 7.4). Subsequently, the cells were stained with 6 μL of AnnexinV-FITC and 10 μL of propidium iodide for 20 min at room temperature in the dark. The samples were immediately analyzed by FACS (BD Accuri C6), and the scatter plot was obtained by BD Accuri C6 software.
# The DNA damaging effect of compound 2a in combination with subtoxic doses of 5FU was further analyzed by Annexin/PI staining to check the activation of programmed cell death. […] Cumulatively, compound 2a elevated the DNA damaging effect and eventually leads to programmed cell death in combination with subtoxic doses of 5FU (FIG. 9b).
compound,measurement,setting,value
"CCCCCc1cc(O[C@@H]2OC(CO)[C@@H](O)C(O)C2O)c2c(c1)OC(C)(C)[C@@H]1CCC(C)=C[C@@H]21 (stereo partly drawn) [Compound 2a, Δ^9-tetrahydrocannabinol-1-O-β-D-glucopyranoside]",IC50,[1],3000 nM
same,IC50,[2],7170 nM
same,IC50 at 48 h,[3],> 100000 nM
same,toxicity towards normal human breast epithelial cells,[4],non-toxic
same,IC50,[5],1420 nM
same,anti-migratory properties in wound healing assay,[6],most prominent anti-migratory properties
same,"cellular invasion, Matrigel",[7],inhibition of cellular invasion
same,gelatin degradation,[8],significant decrease of gelatin degradation
same,apoptosis (Annexin+/PI+),[9],induction of late phase of apoptosis
